From US8232099B2, “Method for transcription/degradation dual control of protein by antibiotic” (Japan Science and Technology Agency, priority 2007, dated 2012)
Residues, ends and D or L forms follow the SMILES beside them. *: point of attachment. Cbz = O=C(OCc1ccccc1)*

How the values were obtained:
Format in all cases: cell-based, human
[1] = biological target: T1, wild-type TetR-EGFP (Escherichia coli, UniProt P04483); test: Flow cytometer fluorescence of HEp-2 cells expressing wild-type TetR-EGFP; conditions: 100 μg/ml MG132, 12 hours
T1 construct: prepare a DNA fragment encoding TetR with no termination codon; expressed in transfected cells; host or cells: human cell line HEp-2, vector pEB6CAG
T1 sequence (P04483 whole entry, the tested form may be a part): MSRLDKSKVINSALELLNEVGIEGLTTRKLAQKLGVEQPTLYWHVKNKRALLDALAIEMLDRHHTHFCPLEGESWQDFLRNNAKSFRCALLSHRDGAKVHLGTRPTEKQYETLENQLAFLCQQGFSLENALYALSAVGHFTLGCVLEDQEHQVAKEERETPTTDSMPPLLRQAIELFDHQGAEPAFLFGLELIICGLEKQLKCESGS
Source text: (§1) All of or any two mutations in combination from three types of mutations, which substitute aspartic acid at the 95th position with asparagine, leucine at the 101st position with serine and glycine at the 102nd position with aspartic acid, were introduced into the tetracycline repressor (TetR), which is an Escherichia coli protein that binds to the antibiotic tetracycline (Tet). The procedure was as follows:
Next, cDNAs encoding TetR-EGFP in which wild-type TetR gene and mutation-introduced TetR gene, respectively, are fused with green fluorescent protein (EGFP) were created. The procedure was as follows.
(§2) An oligo-DNA was synthesized, having a base sequence in which the termination codon has been substituted so as to encode another amino acid instead of the termination codon in the TetR gene, and downstream thereof, a sequence that is recognized and cut by a restriction enzyme; this was used to carry out a PCR reaction to prepare a DNA fragment encoding TetR with no termination codon, and this was substituted with the corresponding site on the DNA encoding the wild-type gene. Then, the DNA was cut by a restriction enzyme and ligated with the upstream side of a DNA fragment encoding EGFP in such a way that the translation open reading frames for protein synthesis match (FIG. 1A). […]

[2] = test system: mutant TetR-EGFP; test: Flow cytometer fluorescence of HEp-2 cells expressing mutant TetR-EGFP; conditions: various concentrations
Source text: as §1
An oligonucleotide encoding an amino acid sequence containing the amino acid substitution to be introduced was synthesized, and this was used to prepare a DNA fragment containing a mutation by PCR reaction. […]
as §2

[3] = test system: pOSTet15-eTetREGFP and pOSTet15-hTetREGFP; test: EGFP expression induction in HEp-2, dual control of transcription and degradation
Source text: A cDNA was integrated into the constitutive gene expression vector “pEB6CAG” or the vector “pOSTet15” enabling transcription-regulated expression through doxycycline, which the present inventors developed by applying the methods in Japanese National-phase PCT Laid-Open Patent Publication No. 2003-515314 (the entirety of which is incorporated herein by reference). The cDNA to be expressed integrates a simple fluorescent protein EGFP, or eTetREGFP or hTetREGFP, which degradation control is enabled by doxycycline. […]
Using a commercially available lipofection reagent, this DNA was introduced into the human cell line HEp-2, the cell line was cultured for four days in the presence of 1.5 mg/ml G418, and only cells with the DNA introduced were selected. These cells were subjected to a flow cytometer and the intensity of fluorescence by EGFP was measured cell by cell to determine the average fluorescence intensity thereof.

[4] = test system: pOSTet15-TetRhCre; test: Cre recombination reporter (Venus to DsRed1) in HEp-2, dual control; parameters: cells displaying red fluorescence only: dose or concentration left out as unconfirmed
Source text: As vectors to control the expression of the […] Cre protein, three types of vectors were constructed for: control by protein degradation only, control by transcription only and dual control. […] Three types of vectors were constructed, “pEB6CAG-TetRhCre”, which enables control by degradation alone, and created by turning the hCre cDNA into TetRhCre which enables degradation control by doxycycline, and which was then integrated into the constitutive gene expression vector “pEB6CAG” described above; “pOSTet15-hCre”, which enables control by transcription alone and was created by integrating hCre cDNA into “pOSTet15”: “pOSTet15-TetRhCre”, which enables dual control and created by integrating TetRhCre into “pOSTet15”. In addition to these, as a monitoring vector for confirming the DNA recombination effect by the Cre protein, a recombination reporter vector in which the yellow fluorescent protein Venus was flanked by loxP sequences and the red fluorescent protein DsRed1 was placed downstream thereof, “pEB6CAG-Venus-lox-R1-SRZ” (FIG. 10), was also constructed. […] The expression effect of Cre can be detected simply from this change in fluorescence wavelength (FIG. 10).
Using a commercially available lipofection reagent, this DNA was introduced into the human cell line HEp-2, the cell line was cultured for four days in the presence of 1.5 mg/ml G418 and 0.1 mg/ml zeocin, and only cells with the two species of DNA introduced were selected. Fluorescences at two wavelengths, yellow and red, were measured with a flow cytometer.
Next, comparison on the capabilities was performed, between when Cre protein expression regulation is carried out by protein degradation control alone and transcription control alone, and the dual control system of the present invention. […]
Next, analyses were performed on the influence of the concentration of doxycycline exerted on recombination efficiency. Two species, the vector for Cre dual control and the recombination reporter vector described above, were introduced into a cell, and after selection over […] efficiency.

[5] = test system: pEB6CAG-TetRhCre; test: Cre recombination reporter in HEp-2, control by protein degradation alone; conditions: 1.0 μg/ml doxycycline
Source text: (§3) As vectors to control the expression of the lambda phage Cre protein, three types of vectors were constructed for: control by protein degradation only, control by transcription only and dual control. […] The expression effect of Cre can be detected simply from this change in fluorescence wavelength (FIG. 10).

[6] = test system: pOSTet15-hCre; test: Cre recombination reporter in HEp-2, control by transcription alone; conditions: 1.0 μg/ml doxycycline
Source text: as §3

Row | SMILES | change in intensity of fluorescence [1] | concentration at which enhancement of fluorescence started to be observed [2] [µg/mL] | concentration at which the maximum intensity of fluorescence was reached [2] [µg/mL] | induction ratio of fluorescence, doxycycline added vs not added [3] [times] | cells displaying red fluorescence only [4] [%] | decrease in cell count due to cytotoxicity ([4]; 1.0 μg/ml doxycycline, treated for three days) | cells changed to red fluorescence ([4]; 1.0 μg/ml doxycycline, treatment of only one day) [%] | cells in which red fluorescence was detected (red only plus both yellow and red) ([4]; 1 mg/ml doxycycline) [%] | concentration needed to ensure that recombination occurs ([4]; four concentration steps from 0.001 μg/ml to 1.0 μg/ml) [µg/mL] | cytotoxicity when doxycycline was added [5] | cytotoxicity when doxycycline was added [6]
1 | CC(C)C[C@@H](C=O)NC(=O)[C@H](CC(C)C)NC(=O)[C@H](CC(C)C)NC(=O)OCc1ccccc1 [MG132] (Cbz-Leu-Leu-Leu-aldehyde) | no major change |  |  |  |  |  |  |  |  |  | 
2 | C[C@H]1c2cccc(O)c2C(=O)C2=C(O)[C@]3(O)C(=O)C(C(N)=O)=C(O)[C@@H](N(C)C)[C@@H]3[C@@H](O)[C@@H]21 [doxycycline] |  | ≥ 0.05 | 1.5 | ≥ 400 | 60 | almost no decrease in cell count | ≥ 70 | ≥ 70 | 1.0 | killing cells | cytotoxicity was observed
